In ChEMBL document CHEMBL1201862, “PubChem BioAssay data set” (2004):
Counter-ions that a name gives are not always drawn. Calls of active or inactive are those of the source.

Assays:
[1] = molecular target: T1, Beta-adrenergic receptor kinase 1 (Homo sapiens, UniProt P25098); assay: aptamer displacement from bead-bound GRK2 – biochemical, cherry pick 1, bead flow cytometry, dose response (AID 504500)
[2] = molecular target: Protein S100-A4 (Homo sapiens, UniProt P26447); assay: S100A4-myosin IIA binding inhibitor potency, dose response, biochemical, fluorescence polarization, cherry-picked hits (AID 687001); type: functional
[3] = molecular target: T1, Beta-adrenergic receptor kinase 1; assay: GRK2 inhibitors displacing RNA aptamer, dose response, biochemical, flow cytometry beads, FAM-aptamer, powder set 1 (AID 588720)
[4] = molecular target: Caspase-7 (Homo sapiens, UniProt P55210); assay: human caspase-7 inhibitors, dose response, selectivity assay for caspase-6 inhibitor project, biochemical, DEVD-R110 fluorescence, cherry-pick (AID 743295)
[5] = molecular target: T2, Apoptotic protease-activating factor 1 (Homo sapiens, UniProt O14727); assay: activation of Apaf-1 mediated apoptosis – fluorescent, uHTS hits, dose response (AID 588554); type: functional
T2 sequence (O14727 whole entry): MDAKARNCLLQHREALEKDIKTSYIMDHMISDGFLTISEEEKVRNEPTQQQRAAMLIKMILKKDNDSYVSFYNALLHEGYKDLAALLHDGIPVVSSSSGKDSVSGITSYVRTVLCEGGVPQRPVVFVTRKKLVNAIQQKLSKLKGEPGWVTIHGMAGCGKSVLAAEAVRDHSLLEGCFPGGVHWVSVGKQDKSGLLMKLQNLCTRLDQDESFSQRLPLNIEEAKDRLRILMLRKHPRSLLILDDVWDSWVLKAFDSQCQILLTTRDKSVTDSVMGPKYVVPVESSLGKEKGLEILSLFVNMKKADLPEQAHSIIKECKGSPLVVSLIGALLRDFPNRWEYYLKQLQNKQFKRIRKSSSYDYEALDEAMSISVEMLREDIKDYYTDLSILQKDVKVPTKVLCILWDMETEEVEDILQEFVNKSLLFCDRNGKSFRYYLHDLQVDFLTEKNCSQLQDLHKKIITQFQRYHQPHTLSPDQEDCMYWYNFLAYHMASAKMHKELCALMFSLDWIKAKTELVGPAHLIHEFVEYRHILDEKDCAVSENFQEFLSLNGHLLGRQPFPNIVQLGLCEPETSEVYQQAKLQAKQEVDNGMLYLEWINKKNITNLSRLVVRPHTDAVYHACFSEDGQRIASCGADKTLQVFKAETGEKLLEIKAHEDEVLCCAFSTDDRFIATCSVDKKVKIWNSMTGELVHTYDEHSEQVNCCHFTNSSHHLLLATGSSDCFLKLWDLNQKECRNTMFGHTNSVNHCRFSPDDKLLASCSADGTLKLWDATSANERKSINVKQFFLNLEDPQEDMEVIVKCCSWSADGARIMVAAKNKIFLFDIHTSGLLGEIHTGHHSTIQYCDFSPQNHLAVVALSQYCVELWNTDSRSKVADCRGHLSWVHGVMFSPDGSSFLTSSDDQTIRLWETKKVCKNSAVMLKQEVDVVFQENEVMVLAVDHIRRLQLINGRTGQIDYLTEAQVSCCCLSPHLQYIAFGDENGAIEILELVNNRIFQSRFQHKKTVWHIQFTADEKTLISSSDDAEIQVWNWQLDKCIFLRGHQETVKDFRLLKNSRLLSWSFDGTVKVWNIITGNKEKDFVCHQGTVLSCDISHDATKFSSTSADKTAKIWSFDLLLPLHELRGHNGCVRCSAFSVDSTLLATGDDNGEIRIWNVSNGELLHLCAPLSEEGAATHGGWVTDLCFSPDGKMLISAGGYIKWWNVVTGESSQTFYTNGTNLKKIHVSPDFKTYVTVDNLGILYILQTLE

[6] = molecular target: T3, Caspase-6 (Homo sapiens, UniProt P55212); assay: human caspase-6 inhibitors, dose response, biochemical, VEID-R110 fluorescence, cherry-pick (AID 720632)
T3 sequence (P55212 whole entry): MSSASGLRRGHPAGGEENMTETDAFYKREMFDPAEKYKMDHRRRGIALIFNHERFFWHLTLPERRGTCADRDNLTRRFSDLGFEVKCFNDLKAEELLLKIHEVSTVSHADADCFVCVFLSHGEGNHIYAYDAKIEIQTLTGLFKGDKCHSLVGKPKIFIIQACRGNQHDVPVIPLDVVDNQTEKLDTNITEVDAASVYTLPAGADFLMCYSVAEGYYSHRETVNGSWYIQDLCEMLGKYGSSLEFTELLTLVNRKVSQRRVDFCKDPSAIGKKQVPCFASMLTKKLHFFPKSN

[7] = molecular target: T4, Carboxy-terminal domain RNA polymerase II polypeptide A small phosphatase 1 (Homo sapiens, UniProt Q9GZU7); assay: inhibitors of CTDSP1, concentration-response testing, biochemical assay, absorbance-based, actives from ultra-high-throughput screening (AID 540297); type: functional
T4 sequence (Q9GZU7 whole entry): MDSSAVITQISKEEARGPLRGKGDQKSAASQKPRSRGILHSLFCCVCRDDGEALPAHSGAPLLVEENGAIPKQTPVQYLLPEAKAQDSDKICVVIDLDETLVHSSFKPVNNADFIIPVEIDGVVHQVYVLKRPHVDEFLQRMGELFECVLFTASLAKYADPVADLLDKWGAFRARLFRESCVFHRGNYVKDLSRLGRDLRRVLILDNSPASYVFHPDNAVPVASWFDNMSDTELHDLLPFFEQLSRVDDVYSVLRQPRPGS

[8] = molecular target: Photoreceptor-specific nuclear receptor (Homo sapiens, UniProt Q9Y5X4); assay: NR2E3 inverse agonists, dose response, biochemical, TR-FRET (AID 463256); type: functional
[9] = molecular target: T5, Endoribonuclease toxin MazF (Escherichia coli K-12, UniProt P0AE70); assay: MazF toxin RNase activators, dose response, biochemical, fluorescence, single-stranded RNA substrate, uHTS hits (AID 588481); type: functional
[10] = molecular target: T5, Endoribonuclease toxin MazF; assay: fluorescent RNA oligo signal without MazF, dose response, counter-screen for MazEF activator project, biochemical, fluorescence, single-stranded RNase substrate (AID 588502); type: functional
[11] = molecular target: Peroxisome proliferator-activated receptor gamma/Nuclear receptor corepressor 2 (Homo sapiens, UniProt P37231+Q9Y618); assay: Counterscreen for NR2E3 inverse agonists: TR-FRET-based biochemical high throughput dose response assay to identify inverse agonists of the interaction between peroxisome proliferator-activated receptor gamma (PPARg) and nuclear receptor co-repressor 2 (NCOR2).; type: functional
[12] = Shn3 3'UTR reporter inhibitors, dose response, cell-based, Clone20 osteoblasts, firefly luciferase, cherry-picked (AID 624132); type: functional;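 note: firefly luciferase luminescence from reporter carrying the Shn3 3'UTR in osteoblasts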
[13] = control 3'UTR Renilla luciferase suppression, dose response, counter-screen for Shn3 inhibitor project, cell-based, Clone20-Shn3RL, cherry-picked (AID 624133); type: functional
[14] = HepG2 cell cytotoxicity, dose response, cytotoxicity control for Shn3 inhibitor project, CellTiter-Glo, cherry-picked (AID 624134); type: functional, cell-based
[15] = system: HEK293; assay: inhibitors of LMP1-driven NF-kB reporter, dose response, cell-based, HEK293, luciferase, cherry-pick (AID 588343); type: functional; conditions: Homo sapiens
[16] = Lymphoblastoid Cells (LCL) Cytotoxicity Secondary Assay Measured in Cell-Based System Using Plate Reader - 2122-03_Inhibitor_Dose_CherryPick_Activity_Set2. [Related pubchem assays (depositor defined):AID504586]
[17] = molecular target: T6, Ubiquitin-conjugating enzyme E2 N (Homo sapiens, UniProt P61088); type: functional
T6 sequence (P61088 whole entry): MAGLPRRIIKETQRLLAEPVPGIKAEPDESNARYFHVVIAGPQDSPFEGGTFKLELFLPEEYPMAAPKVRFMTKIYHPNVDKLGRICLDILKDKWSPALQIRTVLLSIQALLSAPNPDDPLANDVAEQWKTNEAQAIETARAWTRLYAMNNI

[18] = system: BJ; assay: cytotoxicity toward Ras-transformed BJeLR fibroblasts, dose response, cell-based, alamar blue fluorescence, cherrypicked samples (AID 2631); type: functional; conditions: Homo sapiens;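 note: confirmatory dose-response assay in RAS-dependent BJ fibroblasts engineered with TERT, LT and ST, with cytotoxicity read by fluorescence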
[19] = Luminescence Cell-Based Dose Response HTS to Identify Inhibitors of 5'UTR Stem-Loop Driven Prion Protein mRNA Translation in H4 Neuroglioblastoma Cells. [Related pubchem assays: 1827 (Project Summary), 1813 (Primary HTS)]; type: functional
[20] = system: BJ; assay: cells; type: functional, cell-based; conditions: Homo sapiens
[21] = inhibitors of firefly luciferase expression or activity, dose response, H4 neuroglioma cells, luminescence (AID 1990); type: functional, cell-based
[22] = molecular target: T7, DNA repair protein RAD52 homolog (Homo sapiens, UniProt P43351); type: functional, biochemical
T7 sequence (P43351 whole entry): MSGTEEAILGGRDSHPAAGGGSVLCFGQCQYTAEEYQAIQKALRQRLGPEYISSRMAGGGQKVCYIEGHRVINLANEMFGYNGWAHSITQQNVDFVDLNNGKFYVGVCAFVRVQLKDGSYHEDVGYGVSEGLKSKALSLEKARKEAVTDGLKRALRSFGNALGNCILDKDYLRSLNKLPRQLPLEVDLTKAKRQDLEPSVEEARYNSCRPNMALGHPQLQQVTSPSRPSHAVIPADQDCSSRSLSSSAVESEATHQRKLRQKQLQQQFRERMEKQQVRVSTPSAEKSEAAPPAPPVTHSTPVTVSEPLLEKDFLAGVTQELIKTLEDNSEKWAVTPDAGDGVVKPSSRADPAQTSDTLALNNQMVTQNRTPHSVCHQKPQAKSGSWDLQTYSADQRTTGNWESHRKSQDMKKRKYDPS

[23] = molecular target: C-C chemokine receptor type 6 (Homo sapiens, UniProt P51684); assay: CCR6 receptor antagonists, dose response, cell-based, luminescent beta-arrestin readout (AID 504728); type: functional
[24] = cytotoxicity toward DRD oncogenic fibroblasts, dose response, cell-based, non-viral oncogenic, luminescence (AID 1934); type: functional; conditions: Homo sapiens
[25] = inhibitors of SNCA 5'UTR-driven reporter translation, confirmation, H4 neuroglioma cells, luminescence (AID 1988); type: functional, cell-based
[26] = molecular target: T8, Bcl-2-related protein A1 (Mus musculus, UniProt Q07440); type: functional;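 note: confirmatory dose–response counterscreen on Bfl-1, used to check hits from a UBC13 polyubiquitin inhibitor campaign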
T8 sequence (Q07440 whole entry): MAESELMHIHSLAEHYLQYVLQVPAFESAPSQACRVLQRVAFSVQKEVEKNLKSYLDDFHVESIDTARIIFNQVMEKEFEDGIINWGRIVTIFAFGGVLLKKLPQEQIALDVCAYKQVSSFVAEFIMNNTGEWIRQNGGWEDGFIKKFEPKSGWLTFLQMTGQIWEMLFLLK

[27] = system: BJ; assay: cytotoxicity toward BJ-TERT fibroblasts, dose response, cell-based, RAS-independent, luminescence (AID 1933); type: functional; conditions: Homo sapiens
[28] = system: BJ; assay: cytotoxicity toward BJ-TERT-LT-ST fibroblasts, dose response, cell-based, RAS-independent, luminescence (AID 1935); type: functional; conditions: Homo sapiens;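 note: BJ fibroblasts immortalized with TERT plus LT and ST oncogenes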
[29] = molecular target: Paired box protein Pax-8 (Homo sapiens, UniProt Q06710); assay: inhibitors of PAX8-driven TPO luciferase reporter, dose response, RMG-I cells, cherry-pick (AID 687027); type: functional, cell-based;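 note: luciferase reporter driven by Pax8 target thyroperoxidase promoter measured by SteadyGlo luminescence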
[30] = molecular target: T6, Ubiquitin-conjugating enzyme E2 N; type: functional; remark: listed apart in the source
[31] = molecular target: Beta-galactosidase (Escherichia coli, UniProt Q8VNN2); assay: beta-galactosidase enzyme inhibitors and activators, dose response, artefact control for CCR6 antagonist project, biochemical, E. coli enzyme, set 3 (AID 504712); type: functional
[32] = non-specific cell cytotoxicity, dose response, cytotoxicity control for PAX8 inhibitor project, plate reader, dry powder samples (AID 743021); type: functional, cell-based

T1 sequence (P25098 whole entry): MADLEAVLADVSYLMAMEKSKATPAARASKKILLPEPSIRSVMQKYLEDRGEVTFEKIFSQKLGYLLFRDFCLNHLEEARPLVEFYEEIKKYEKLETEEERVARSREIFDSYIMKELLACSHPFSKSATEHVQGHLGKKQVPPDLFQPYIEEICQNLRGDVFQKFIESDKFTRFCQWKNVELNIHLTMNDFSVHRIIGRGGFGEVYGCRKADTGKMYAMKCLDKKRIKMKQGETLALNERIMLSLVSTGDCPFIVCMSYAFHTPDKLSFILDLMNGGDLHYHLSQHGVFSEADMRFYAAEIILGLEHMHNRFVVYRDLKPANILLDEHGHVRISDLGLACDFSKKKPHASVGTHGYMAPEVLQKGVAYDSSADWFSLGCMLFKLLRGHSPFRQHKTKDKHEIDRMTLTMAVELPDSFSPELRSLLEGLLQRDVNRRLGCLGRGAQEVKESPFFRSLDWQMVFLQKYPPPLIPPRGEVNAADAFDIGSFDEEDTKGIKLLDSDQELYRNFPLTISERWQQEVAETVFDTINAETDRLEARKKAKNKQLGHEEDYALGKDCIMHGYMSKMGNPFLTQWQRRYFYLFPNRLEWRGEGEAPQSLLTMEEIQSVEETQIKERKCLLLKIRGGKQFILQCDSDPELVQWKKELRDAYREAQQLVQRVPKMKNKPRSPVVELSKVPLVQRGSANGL
T5 sequence (P0AE70 whole entry): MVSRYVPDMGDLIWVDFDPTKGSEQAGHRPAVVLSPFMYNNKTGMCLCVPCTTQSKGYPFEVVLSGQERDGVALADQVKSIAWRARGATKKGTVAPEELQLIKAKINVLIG
Sequence of C-C chemokine receptor type 6 (P51684 whole entry): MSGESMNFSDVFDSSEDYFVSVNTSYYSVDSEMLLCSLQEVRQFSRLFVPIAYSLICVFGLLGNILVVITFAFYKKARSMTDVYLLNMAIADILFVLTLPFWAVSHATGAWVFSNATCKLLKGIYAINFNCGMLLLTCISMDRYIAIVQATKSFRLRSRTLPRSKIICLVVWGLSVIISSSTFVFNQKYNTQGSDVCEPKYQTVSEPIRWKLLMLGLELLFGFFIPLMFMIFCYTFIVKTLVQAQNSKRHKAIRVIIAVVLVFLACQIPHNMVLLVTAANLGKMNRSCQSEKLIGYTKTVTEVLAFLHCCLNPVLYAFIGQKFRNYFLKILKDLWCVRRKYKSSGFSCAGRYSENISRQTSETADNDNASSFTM
Sequence of Beta-galactosidase (Q8VNN2 whole entry): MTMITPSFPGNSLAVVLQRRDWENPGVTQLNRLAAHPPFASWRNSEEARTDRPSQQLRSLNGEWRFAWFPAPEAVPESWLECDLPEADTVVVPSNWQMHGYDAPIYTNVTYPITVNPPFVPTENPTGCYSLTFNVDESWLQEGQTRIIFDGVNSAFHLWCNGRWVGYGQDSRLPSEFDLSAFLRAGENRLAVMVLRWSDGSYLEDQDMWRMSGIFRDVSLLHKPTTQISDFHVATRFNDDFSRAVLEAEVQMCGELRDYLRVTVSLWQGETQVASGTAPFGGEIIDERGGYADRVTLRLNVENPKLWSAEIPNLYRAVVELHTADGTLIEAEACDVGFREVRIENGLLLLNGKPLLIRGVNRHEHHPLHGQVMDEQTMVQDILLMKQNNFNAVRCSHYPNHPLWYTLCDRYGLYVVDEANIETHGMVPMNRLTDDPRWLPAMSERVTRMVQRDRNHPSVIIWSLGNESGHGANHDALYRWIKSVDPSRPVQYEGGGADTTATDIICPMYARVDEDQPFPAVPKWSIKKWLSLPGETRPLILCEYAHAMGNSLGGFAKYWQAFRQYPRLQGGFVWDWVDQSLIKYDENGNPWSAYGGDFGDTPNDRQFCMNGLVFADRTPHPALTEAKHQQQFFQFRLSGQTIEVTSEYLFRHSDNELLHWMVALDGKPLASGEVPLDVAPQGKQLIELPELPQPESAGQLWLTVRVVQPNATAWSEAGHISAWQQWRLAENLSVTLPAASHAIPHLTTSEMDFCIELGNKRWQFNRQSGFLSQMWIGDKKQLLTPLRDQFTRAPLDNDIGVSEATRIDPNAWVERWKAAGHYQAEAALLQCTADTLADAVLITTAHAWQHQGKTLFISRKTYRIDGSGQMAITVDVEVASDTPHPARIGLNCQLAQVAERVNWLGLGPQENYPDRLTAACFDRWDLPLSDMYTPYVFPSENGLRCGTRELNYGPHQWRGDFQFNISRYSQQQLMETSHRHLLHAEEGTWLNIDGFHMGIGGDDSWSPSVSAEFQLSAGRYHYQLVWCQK
Sequence of Photoreceptor-specific nuclear receptor (Q9Y5X4 whole entry): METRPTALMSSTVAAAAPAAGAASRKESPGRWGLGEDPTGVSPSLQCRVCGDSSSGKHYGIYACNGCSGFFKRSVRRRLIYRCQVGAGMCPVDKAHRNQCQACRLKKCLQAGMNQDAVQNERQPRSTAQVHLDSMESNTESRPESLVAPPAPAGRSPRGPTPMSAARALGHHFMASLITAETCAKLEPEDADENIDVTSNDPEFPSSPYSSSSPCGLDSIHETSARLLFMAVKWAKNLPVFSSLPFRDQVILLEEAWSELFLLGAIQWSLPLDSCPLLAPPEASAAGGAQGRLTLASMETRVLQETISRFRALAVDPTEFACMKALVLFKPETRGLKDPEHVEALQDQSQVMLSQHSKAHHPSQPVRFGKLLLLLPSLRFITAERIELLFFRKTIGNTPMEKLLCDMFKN
Sequence of Caspase-7 (P55210 24-198 limits assumed): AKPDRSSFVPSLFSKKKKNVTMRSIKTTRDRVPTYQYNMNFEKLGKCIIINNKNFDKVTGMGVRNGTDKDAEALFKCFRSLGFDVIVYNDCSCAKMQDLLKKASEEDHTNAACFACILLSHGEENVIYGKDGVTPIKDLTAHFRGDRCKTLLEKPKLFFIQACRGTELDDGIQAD
Sequence of Caspase-7 (P55210 207-303 limits assumed): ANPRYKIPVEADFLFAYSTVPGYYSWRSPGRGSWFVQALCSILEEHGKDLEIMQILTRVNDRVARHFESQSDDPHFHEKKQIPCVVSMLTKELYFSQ
Sequence of Protein S100-A4 (P26447 whole entry): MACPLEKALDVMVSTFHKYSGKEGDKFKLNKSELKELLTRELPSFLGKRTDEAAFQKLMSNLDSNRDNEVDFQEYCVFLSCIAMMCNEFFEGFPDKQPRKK
Sequence of Paired box protein Pax-8 (Q06710 whole entry): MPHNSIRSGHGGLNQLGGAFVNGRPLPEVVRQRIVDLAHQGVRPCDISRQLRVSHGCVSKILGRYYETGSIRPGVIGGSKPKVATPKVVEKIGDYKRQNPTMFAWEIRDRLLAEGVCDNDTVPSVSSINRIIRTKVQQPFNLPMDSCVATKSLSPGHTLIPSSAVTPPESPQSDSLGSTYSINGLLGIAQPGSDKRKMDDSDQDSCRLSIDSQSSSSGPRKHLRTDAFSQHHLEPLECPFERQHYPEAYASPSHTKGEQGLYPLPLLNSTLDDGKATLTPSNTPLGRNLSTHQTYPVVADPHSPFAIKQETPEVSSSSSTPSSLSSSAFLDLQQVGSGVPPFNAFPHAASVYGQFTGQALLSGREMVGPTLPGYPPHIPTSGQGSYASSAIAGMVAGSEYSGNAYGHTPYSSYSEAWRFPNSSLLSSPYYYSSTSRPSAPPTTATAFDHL

Compound: COc1ccc([N+](=O)[O-])cc1NC(=O)CCS(=O)(=O)c1ccc(Br)cc1
- EC50 [1]: 15 µM (inactive)
- AC50 [2]: 4.1 µM (active)
- EC50 [3]: 1.45 µM (active)
- AC50 [4]: > 70 µM (inactive)
- EC50 [5]: 12.2 µM (active)
- AC50 [6]: 3.61 µM (active)
- IC50 [7]: 4.79 µM (active)

Compound: Cn1nc(-c2ccc(C(=O)Nc3cccc(Cl)c3)cc2)c2ccccc2c1=O
- IC50 [8]: 3.95 µM (active)
- EC50 [9]: 57.9 µM (inactive)
- EC50 [10]: 14.8 µM (active)
- IC50 [11]: 1.78 µM (active)

Compound: CCc1cc2c(N3CCN(c4ccccc4)CC3)ncnc2s1
- AC50 [12]: 6.18 µM (active)
- AC50 [13]: 11.3 µM (active)
- AC50 [14]: 34 µM (active)
- AC50 [15]: 26.7 µM (active)
- AC50 [16]: 26.2 µM (active)

Compound: CCCCCNC(=N)N/N=C/c1c[nH]c2ccc(OC)cc12 [TEGASEROD MALEATE]
- IC50 [17]: 8.2 µM (active)
- EC50 [18]: 3.92 µM (inconclusive)
- EC50 [19]: > 120 µM (not active)
- EC50 [20]: 7.15 µM (active)
- EC50 [21]: > 60 µM (not active)
- AC50 [22]: 16.7 µM (active)
- IC50 [23]: 23.4 µM (inactive)
- EC50 [24]: 5.36 µM (inconclusive)
- EC50 [25]: 7.96 µM (active)
- IC50 [26]: > 20 µM (inactive)
- EC50 [27]: 5.21 µM (inconclusive)
- EC50 [28]: 3.94 µM (active)
- AC50 [29]: 12.4 µM (active)
- IC50 [30]: 12.5 µM (active)
- IC50 [31]: > 66.6 µM (inactive)
- AC50 [32]: 23.2 µM (active)
